Results published in US20130231377A1, “PACTAMYCIN ANALOGS AND METHODS OF USE” (State of Oregon acting by and through the state Board of …, priority 2010, published 2013).
Like-named read-outs stand apart in the source and are kept apart here. Each block holds one compound with its values, some of them ahead of it.

Key:
[1] = tested on: chloroquine-resistant and MDR clone Dd2 of P. falciparum; test: Antimalarial activity assay, SYBR Green I fluorescence-based method; type: cell-based, Plasmodium falciparum; details: for IC50: read-out: Antimalarial IC50 (Dd2); for IC90: read-out: Antimalarial IC90 (Dd2)
Experimental: (§1) An antimalarial activity assay was carried out at the Oregon Translational Research and Drug Development Institute (OTRADI). Two strains of P. falciparum were used. The chloroquine-sensitive clone D6, and chloroquine-resistant and MDR clone Dd2 was obtained from the Malaria Research and Reference Reagent Resource Center (MR4) (Manassas, Va.). The parasites were cultured according to the method of Trager and Jensen (Trager and Jensen, Science, 1976, 193:673-675), with minor modifications. The cultures were maintained in human erythrocytes (Lampire Biological Laboratories, Pipersville, Pa.), suspended at 2% hematocrit in RPMI 1640 (Sigma) containing 0.5% Albumax (Invitrogen), […] hypoxanthine (Lancaster), and 50 μg/L gentamicin (Invitrogen), and incubated at 37° C. under a gas mixture of 5% O2, 5% CO2, and 90% N2. In vitro antimalarial activity was determined by a SYBR Green I fluorescence-based method described previously by Smilkstein et al. (Smilkstein et al., Antimicrob. Agents Chemother., 2004, 48:1803-1806). Frozen stock solutions of each test drug (1 mM in DMSO) were thawed, warmed to 37° C., and mixed thoroughly prior to use. Drug solutions were serially diluted with culture medium, and distributed to asynchronous parasite cultures on 96-well plates in quadruplicate in a total volume of 100 μL to achieve 0.2% parasitemia with a 2% hematocrit in a total volume of 100 μL. Automated pipeting and dilution was carried using programmable Precision XS (Bio-Tek, Winooski, Vt.) and Sciclone ALH3000 (Caliper, Hopkinton, Mass.) robotic stations. The plates then were incubated for 72 hours at temperature and gas conditions described above. After incubation, 100 μL of lysis buffer with SYBR Green I was added to each well. The plates were incubated at room temperature for 1 h and then placed in a 96-well fluorescence plate reader (Synergy4, BioTek, Winooski, Vt.) with excitation and emission wavelength at 485 nm and 528 nm, respectively, for measurement of fluorescence. The 50% inhibitory concentration (IC50) was determined by non-linear regression analysis of logistic dose-response curves (GraphPad Prism software).

[2] = tested on: chloroquine-sensitive clone D6 of P. falciparum; test: as above; type: cell-based, Plasmodium falciparum; details: for IC50: read-out: Antimalarial IC50 (D6); for IC90: read-out: Antimalarial IC90 (D6)
Experimental: as §1

Mycobacterium smegmatis = test: Antibacterial agar diffusion assay (Example 2); type: cell-based
Experimental: (§2) Antibacterial activity of pactamycin and its analogues was determined by an agar diffusion assay. E. coli, Pseudomonas aeruginosa, Mycobacterium smegmatis, and Staphylococcus aureus were streaked on nutrient agar (Difco) and grown overnight at 37° C. Colonies were transferred to nutrient broth and incubated at 37° C. for 24 hours. Turbidity of the inoculum was measured to a proper density at 600 nm (BioRad, SmartSpec 3000). For plate preparation, inoculum (500 μL) was mixed thoroughly with warm nutrient agar (50 mL) and poured to 25 mL square plates. The agar plates were allowed to solidify and dry for 30 minutes before assay. Sterile blank paper disks (Becton-Dickinson) were impregnated with pactamycin and its analogues (20 μL) at various concentrations and dried at room temperature. The disks were placed onto inoculated agar plates and incubated at 37° C. for 24 hours. In order to produce a contrast background of the inhibition zone, 0.25% MTT developing dye (1 mL) was added over the plates.

Pseudomonas aeruginosa = test: Antibacterial agar diffusion assay (Example 2); type: cell-based
Experimental: as §2

Staphylococcus aureus = test: Antibacterial agar diffusion assay (Example 2); type: cell-based
Experimental: as §2

E. coli = test: Antibacterial agar diffusion assay (Example 2); type: cell-based, Escherichia coli
Experimental: as §2

[3] = tested on: human colon cancer HT-29 cells; test: MTT cell viability assay in HT-29 cells; type: cell-based; details: HT-29 cells, 24-hour
Experimental: The MTT assay was carried out as described by Mosmann (J. Immunol. Methods, 1983, 65:55). Briefly, human colon cancer HT-29 cells (ATCC) were seeded in 96-well plates at a density of 1.0×10^4 cells per well. The growth medium consisted of phenol red-free RPMI 1640 (Invitrogen, Carlsbad, Calif.) containing 10% fetal bovine serum (Invitrogen, Carlsbad, Calif.), glutamine (2 mM), penicillin (100 units/mL) and streptomycin (100 μg/mL). After a 24-hour incubation at 37° C. in a humidified atmosphere of 5% CO2, the medium was removed and replaced with fresh RPMI 1640 medium (with or without 10% FBS and no penicillin or streptomycin). Increasing concentrations of pactamycin, pactamycate, de-6MSA pactamycin, or de-6MSA-pactamycate dissolved in DMSO were added to cells at a volume of 0.2 mL/well. DMSO was added to control media not to exceed a final concentration of 1%. Following a 24-hour incubation, the medium was aspirated from each well and replaced with fresh RPMI medium with 10% FBS and MTT (0.5 mg/mL). […] The plate was shaken for 10 minutes before reading the absorbance at 570 nm using a microplate reader (SpectraMax 250, Molecular Devices, Sunnyvale, Calif., USA). The viability of treated cells was expressed as the percentage of control cells. […]

[4] = tested on: HT-29 human colon carcinoma cells; test: SRB growth inhibition assay in HT-29 cells; type: cell-based
Experimental: Growth inhibition of HT-29 cells induced by the test compounds was also evaluated by the SRB assay, which is based on measuring total biomass by staining the cellular proteins with sulforhodamine B (Skehan et al., J. Natl. Cancer Inst., 1990, 82:1107). After treating the HT-29 cells with the compounds for 24 hours, the adherent cells grown in 96-well plates were fixed with 10% trichloroacetic acid and incubated for 1 hour at 4° C. The plates were washed five times with tap water, dried, and stained with SRB solution (0.4% wt/vol in 1% acetic acid) for 30 minutes at room temperature. The plates were again washed and dried before adding 10 mM Tris base to solubilize the bound stain. Optical densities (OD) were read at 564 nm in SpectraMax 250 and cell growth of treated cells was expressed as the percentage of control cells, ODtest/ODcontrol×100%.

[5] = tested on: Gram-positive and Gram-negative bacteria; test: Antibacterial agar diffusion and micro-dilution assays, all tested strains (Example 1); type: cell-based, S. aureus, B. subtilis, P. aeruginosa, E. coli; details: for antibacterial activity in agar diffusion and micro-dilution assays (in words): at the concentrations used; for IC50: consistently higher than pactamycin, mostly >1 mM, read-out: IC50 against all tested bacterial strains
Experimental: The antibacterial activity of pactamycin and its analogs was determined by agar diffusion and micro-dilution assays. E. coli, P. aeruginosa, B. subtilis or M. smegmatis, and S. aureus were streaked on nutrient agar (Difco or Beckton-Dickinson) and grown overnight at 37° C. Colonies were transferred to nutrient broth and incubated at 37° C. for 24 hours. Turbidity of the inoculum was measured to a proper density at 600 nm (BioRad, SmartSpec 3000). For plate preparation, inoculum (500 μL) was mixed thoroughly with warm nutrient agar (50 mL) and poured to 25 mL square plates. The agar plates were allowed to solidify and dry for 30 min before assay. Sterile blank paper disks (Becton-Dickinson) were impregnated with pactamycin and its analogs (20 μL) at various concentrations and dried at room temperature. The disks were placed onto inoculated agar plates and incubated at 37° C. for 24 hours. In order to produce a contrast background of the inhibition zone, 0.25% MTT developing dye (1 mL) was added over the plates.
Micro-dilution assays were performed in 96-well plates. The compounds were serially diluted and added to the bacterial suspension at final concentrations of 1 mM-10 nM, or 0.5 mM-10 nM. After incubation at 37° C. for 24 hours, 0.25% MTT developing dye (50 μL) was added. Each assay was done in triplicate.

[6] = Cytotoxicity assay (WST-8) against HCT116 cells; type: cell-based; details: human, HCT116 colorectal carcinoma cells, estimated
Experimental: HCT116 (colorectal carcinoma) cells were seeded onto a 96-well plate at 10,000 cells per well. Cells were treated with either 5, 50, 500 or 5000 nM TM-025, TM-026, N-acetyl-glucosaminyl-3-aminoacetophenone or 5, 25, 50, 100 nM pactamycin in triplicate for 48 hours. For the narrow range concentration assays, cells were treated with either 0.5, 1, 2 or 4 μM TM-025; 1, 2, 3 or 5 μM TM-026; 0.5, 2, 5 or 7 μM N-acetylglucosaminyl-3-aminoacetophenone or 12.5, 25, 50, 100 nM pactamycin in triplicate for 24 or 48 hours. WST-8 [2-(2-methoxy-4-nitrophenyl)-3-[…], monosodium salt] (Dojindo, Rockville, Md.) was added to each well to give an orange-colored formazan product, which is soluble in tissue culture medium. Absorbance was measured at 450 nm. Percent of viable cells was calculated relative to the “No Treatment” and “Solvent Only” wells.

[7] = Plasmodium falciparum, DD2, 72 h
[8] = Plasmodium falciparum, D6, 72 h
[9] = Plasmodium falciparum, DD2, 72 h, P. falciparum Dd2, 72 hours
[10] = Plasmodium falciparum, D6, 72 h, P. falciparum D6, 72 hours

Structure (SMILES): CC(=O)N[C@H]1C(Nc2cccc(C(C)=O)c2)O[C@H](CO)[C@@H](O)[C@@H]1O (stereo partly shown) [N-acetylglucosaminyl-3-aminoacetophenone, reference compound]
antimalarial activity (in words) ([1]; P. falciparum Dd2): lack of activity
antimalarial activity (in words) ([2]; P. falciparum D6): lack of activity

Structure (SMILES): CC(=O)c1cccc(N[C@H]2[C@H](N)[C@]3(NC(=O)O[C@H]3C)[C@@](C)(O)[C@@]2(O)COC(=O)c2c(C)cccc2O)c1 [pactamycate, reference compound]
IC50 [1, 7]: ~0.3 µM
IC90 [1, 7]: ~0.8 µM
IC50 [2, 8]: ~0.3 µM
IC90 [2, 8]: ~0.8 µM
antibacterial activity, growth of Mycobacterium smegmatis (Mycobacterium smegmatis): no antibacterial activity
antibacterial activity, growth of Pseudomonas aeruginosa (Pseudomonas aeruginosa): no antibacterial activity
antibacterial activity, growth of Staphylococcus aureus (Staphylococcus aureus): no antibacterial activity
antibacterial activity, growth of E. coli (E. coli): no antibacterial activity
cytotoxicity profile (MTT-based assay) [3]: reduced cytotoxicity profile
cytotoxicity profile (SRB-based assay) [4]: reduced cytotoxicity profile

Structure (SMILES): C[C@@H]1CC[C@H]2[C@@H](C)C(=O)O[C@@H]3O[C@@]4(C)CC[C@@H]1[C@]32OO4 [artemisinin, reference compound]
EC50 ([1]; Plasmodium falciparum, Example 2, FIG. 14, multi-drug resistant Dd2, read-out: EC50 against the Dd2 strain): 0.007 µM

Structure (SMILES): CCN(CC)CCCC(C)Nc1ccnc2cc(Cl)ccc12 (stereo not shown) [chloroquine, reference compound]
EC50 ([2]; Plasmodium falciparum, D6, read-out: EC50 against the D6 strain): 0.01 µM

Structure (SMILES): CC(=O)c1cccc(N[C@H]2[C@H](N)[C@]3(NC(=O)O[C@H]3C)[C@@](C)(O)[C@@]2(O)CO)c1 [de-6MSA-pactamycate]
antibacterial activity, growth of Mycobacterium smegmatis (Mycobacterium smegmatis): no antibacterial activity
antibacterial activity, growth of Pseudomonas aeruginosa (Pseudomonas aeruginosa): no antibacterial activity
antibacterial activity, growth of Staphylococcus aureus (Staphylococcus aureus): no antibacterial activity
antibacterial activity, growth of E. coli (E. coli): no antibacterial activity

Second part, led by results:

IC50 ([1]; P. falciparum Dd2, 72 hours): ~0.025 µM
IC90 ([1]; P. falciparum Dd2, 72 hours): ~0.076 µM
IC50 [1, 9]: 0.025 to 0.03 µM
IC90 [1, 9]: 0.062 to 0.077 µM
IC50 ([2]; P. falciparum D6, 72 hours): ~0.025 µM
IC90 ([2]; P. falciparum D6, 72 hours): ~0.062 µM
IC50 [2, 10]: 0.025 to 0.03 µM
IC90 [2, 10]: 0.062 to 0.077 µM
IC50 [5]: > 1000 µM
Structure (SMILES): CC(=O)c1cccc(N[C@H]2[C@H](N)[C@](C)(NC(=O)N(C)C)[C@@](C)(O)[C@@]2(O)CO)c1 [TM-025, de-6MSA-7-demethyl-7-deoxypactamycin]
antibacterial activity in agar diffusion and micro-dilution assays (in words) [5]: neither TM-025 nor TM-026 showed any significant activity
IC50 [6]: ~1.3 µM

IC50 ([1]; P. falciparum Dd2, 72 hours): ~0.026 µM
IC90 ([1]; P. falciparum Dd2, 72 hours): ~0.077 µM
IC50 [1, 9]: 0.025 to 0.03 µM
IC90 [1, 9]: 0.062 to 0.077 µM
IC50 ([2]; P. falciparum D6, 72 hours): ~0.03 µM
IC90 ([2]; P. falciparum D6, 72 hours): ~0.063 µM
IC50 [2, 10]: 0.025 to 0.03 µM
IC90 [2, 10]: 0.062 to 0.077 µM
IC50 [5]: > 1000 µM
Structure (SMILES): CC(=O)c1cccc(N[C@H]2[C@H](N)[C@](C)(NC(=O)N(C)C)[C@@](C)(O)[C@@]2(O)COC(=O)c2c(C)cccc2O)c1 [TM-026, 7-demethyl-7-deoxypactamycin]
antibacterial activity in agar diffusion and micro-dilution assays (in words) [5]: neither TM-025 nor TM-026 showed any significant activity
IC50 [6]: ~3 µM
